According to PubChem BioAssay (NCI):
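Values below derive from 48-hour exposures of cells grown in 96-well plates, with endpoints linearly interpolated between the two concentrations bracketing the appropriate inhibition level. GI50: concentration for 50% inhibition of growth. Definition used: TGI = concentration required for complete inhibition of growth.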

Experiments:
Test in all cases: NCI tumour cell line growth inhibition, 48 h
OVCAR-3 ovarian = test system: OVCAR-3 ovarian
LOX IMVI melanoma = test system: LOX IMVI melanoma
UACC-62 melanoma = test system: UACC-62 melanoma
HL-60(TB) leukemia = test system: HL-60(TB) leukemia
HCT-15 colon = test system: HCT-15 colon
HS 578T breast = test system: HS 578T breast
SK-MEL-2 melanoma = test system: SK-MEL-2 melanoma
BT-549 breast = test system: BT-549 breast
A549 NSCLC = test system: A549 NSCLC
SF-295 CNS = test system: SF-295 CNS
NCI/ADR-RES ovarian = test system: NCI/ADR-RES ovarian
MOLT-4 leukemia = test system: MOLT-4 leukemia
OVCAR-5 ovarian = test system: OVCAR-5 ovarian
HOP-62 NSCLC = test system: HOP-62 NSCLC
TK-10 renal = test system: TK-10 renal
MDA-MB-435 = test system: MDA-MB-435
UO-31 renal = test system: UO-31 renal
U251 CNS = test system: U251 CNS
IGROV1 ovarian = test system: IGROV1 ovarian
786-0 renal = test system: 786-0 renal
COLO 205 colon = test system: COLO 205 colon
OVCAR-4 ovarian = test system: OVCAR-4 ovarian
T-47D breast = test system: T-47D breast
CCRF-CEM leukemia = test system: CCRF-CEM leukemia
SR leukemia = test system: SR leukemia
PC-3 prostate = test system: PC-3 prostate
UACC-257 melanoma = test system: UACC-257 melanoma
SW-620 colon = test system: SW-620 colon
RPMI-8226 leukemia = test system: RPMI-8226 leukemia
A498 renal = test system: A498 renal
MALME-3M melanoma = test system: MALME-3M melanoma
HCT-116 colon = test system: HCT-116 colon
DU-145 prostate = test system: DU-145 prostate
RXF 393 renal = test system: RXF 393 renal
NCI-H226 lung = test system: NCI-H226 lung
NCI-H460 lung = test system: NCI-H460 lung
SF-268 CNS = test system: SF-268 CNS
SK-OV-3 ovarian = test system: SK-OV-3 ovarian
SNB-19 CNS = test system: SNB-19 CNS
SN12C renal = test system: SN12C renal
M14 melanoma = test system: M14 melanoma
CAKI-1 renal = test system: CAKI-1 renal
MCF7 breast = test system: MCF7 breast
ACHN renal = test system: ACHN renal
SF-539 CNS = test system: SF-539 CNS
SK-MEL-28 melanoma = test system: SK-MEL-28 melanoma
HOP-92 NSCLC = test system: HOP-92 NSCLC
NCI-H522 lung = test system: NCI-H522 lung
KM12 colon = test system: KM12 colon
HCC-2998 colon = test system: HCC-2998 colon
HT29 colon = test system: HT29 colon
EKVX NSCLC = test system: EKVX NSCLC
SNB-75 CNS = test system: SNB-75 CNS
MDA-MB-231 breast = test system: MDA-MB-231 breast
K-562 leukemia = test system: K-562 leukemia
SK-MEL-5 melanoma = test system: SK-MEL-5 melanoma
OVCAR-8 ovarian = test system: OVCAR-8 ovarian
NCI-H23 lung = test system: NCI-H23 lung

`O=C1CCc2c(Oc3ccc4c(c3)[C@H]3[C@@H](O4)[C@@H]3c3nc4ccc(C(F)(F)F)cc4[nH]3)ccnc2N1` was tested. Which GI50 (OVCAR-3 ovarian) did it give?
The GI50 was 4180 nM.

What about the TGI (OVCAR-3 ovarian) of the same compound?
The TGI was over 100000 nM.

And the GI50 (LOX IMVI melanoma)?
Its GI50 is 102 nM.

What about the TGI (LOX IMVI melanoma) of the same compound?
The TGI was 4650 nM.

And the GI50 (UACC-62 melanoma)?
Its GI50 is 21.5 nM.

What about the TGI (UACC-62 melanoma) of the same compound?
Its TGI is 1410 nM.

What about the GI50 (HL-60(TB) leukemia) of the same compound?
The GI50 was 237 nM.

And the TGI (HL-60(TB) leukemia)?
Its TGI is 3140 nM.

What about the GI50 (HCT-15 colon) of the same compound?
The GI50 was 2400 nM.

And the TGI (HCT-15 colon)?
Its TGI is over 100000 nM.

And the GI50 (HS 578T breast)?
The GI50 was 5410 nM.

What about the TGI (HS 578T breast) of the same compound?
The TGI was over 100000 nM.

What about the GI50 (SK-MEL-2 melanoma) of the same compound?
Its GI50 is 242 nM.

What about the TGI (SK-MEL-2 melanoma) of the same compound?
The TGI was 1670 nM.

And the GI50 (BT-549 breast)?
Its GI50 is 3220 nM.

And the TGI (BT-549 breast)?
Its TGI is over 100000 nM.

What about the GI50 (A549 NSCLC) of the same compound?
The GI50 was 2520 nM.

What about the TGI (A549 NSCLC) of the same compound?
Its TGI is over 100000 nM.

And the GI50 (SF-295 CNS)?
Its GI50 is 3630 nM.

And the TGI (SF-295 CNS)?
The TGI was over 100000 nM.

And the GI50 (NCI/ADR-RES ovarian)?
Its GI50 is 2830 nM.

What about the TGI (NCI/ADR-RES ovarian) of the same compound?
The TGI was over 100000 nM.

What about the GI50 (MOLT-4 leukemia) of the same compound?
Its GI50 is 1660 nM.

What about the TGI (MOLT-4 leukemia) of the same compound?
Its TGI is over 100000 nM.

What about the GI50 (OVCAR-5 ovarian) of the same compound?
The GI50 was 1070 nM.

And the TGI (OVCAR-5 ovarian)?
The TGI was over 100000 nM.

What about the GI50 (HOP-62 NSCLC) of the same compound?
Its GI50 is 2450 nM.

What about the TGI (HOP-62 NSCLC) of the same compound?
Its TGI is over 100000 nM.

And the GI50 (TK-10 renal)?
The GI50 was 1610 nM.

What about the TGI (TK-10 renal) of the same compound?
Its TGI is over 30300 nM.

What about the GI50 (MDA-MB-435) of the same compound?
Its GI50 is 68.2 nM.

And the TGI (MDA-MB-435)?
Its TGI is over 100000 nM.

What about the GI50 (UO-31 renal) of the same compound?
The GI50 was 693 nM.

What about the TGI (UO-31 renal) of the same compound?
Its TGI is over 25300 nM.

What about the GI50 (U251 CNS) of the same compound?
Its GI50 is 3920 nM.

And the TGI (U251 CNS)?
The TGI was over 100000 nM.

What about the GI50 (IGROV1 ovarian) of the same compound?
The GI50 was 1190 nM.

And the TGI (IGROV1 ovarian)?
Its TGI is over 100000 nM.

And the GI50 (786-0 renal)?
Its GI50 is 6280 nM.

What about the TGI (786-0 renal) of the same compound?
Its TGI is over 100000 nM.

What about the GI50 (COLO 205 colon) of the same compound?
The GI50 was 35.9 nM.

What about the TGI (COLO 205 colon) of the same compound?
Its TGI is 8390 nM.

And the GI50 (OVCAR-4 ovarian)?
Its GI50 is 2020 nM.

What about the TGI (OVCAR-4 ovarian) of the same compound?
Its TGI is over 100000 nM.

And the GI50 (T-47D breast)?
Its GI50 is 1370 nM.

What about the TGI (T-47D breast) of the same compound?
The TGI was over 27100 nM.

What about the GI50 (CCRF-CEM leukemia) of the same compound?
Its GI50 is 3540 nM.

And the TGI (CCRF-CEM leukemia)?
Its TGI is over 100000 nM.

What about the GI50 (SR leukemia) of the same compound?
Its GI50 is 2560 nM.

What about the TGI (SR leukemia) of the same compound?
Its TGI is over 25200 nM.

And the GI50 (PC-3 prostate)?
Its GI50 is 3970 nM.

And the TGI (PC-3 prostate)?
Its TGI is over 100000 nM.

And the GI50 (UACC-257 melanoma)?
Its GI50 is 32.3 nM.

And the GI50 (SW-620 colon)?
Its GI50 is 2430 nM.

And the TGI (SW-620 colon)?
Its TGI is over 100000 nM.

What about the GI50 (RPMI-8226 leukemia) of the same compound?
Its GI50 is 2560 nM.

What about the TGI (RPMI-8226 leukemia) of the same compound?
The TGI was over 100000 nM.

What about the GI50 (A498 renal) of the same compound?
The GI50 was 1120 nM.

And the TGI (A498 renal)?
Its TGI is 4240 nM.

What about the GI50 (MALME-3M melanoma) of the same compound?
Its GI50 is under 13.7 nM.

What about the TGI (MALME-3M melanoma) of the same compound?
The TGI was 61.3 nM.

And the GI50 (HCT-116 colon)?
The GI50 was 406 nM.

What about the TGI (HCT-116 colon) of the same compound?
The TGI was over 100000 nM.

And the GI50 (DU-145 prostate)?
The GI50 was 4120 nM.

And the TGI (DU-145 prostate)?
The TGI was over 100000 nM.

And the GI50 (RXF 393 renal)?
The GI50 was 4030 nM.

And the TGI (RXF 393 renal)?
Its TGI is over 100000 nM.

What about the GI50 (NCI-H226 lung) of the same compound?
Its GI50 is 1100 nM.

What about the TGI (NCI-H226 lung) of the same compound?
The TGI was over 100000 nM.

And the GI50 (NCI-H460 lung)?
The GI50 was 2410 nM.

And the TGI (NCI-H460 lung)?
Its TGI is over 100000 nM.

And the GI50 (SF-268 CNS)?
Its GI50 is 2730 nM.

What about the TGI (SF-268 CNS) of the same compound?
The TGI was over 100000 nM.

And the GI50 (SK-OV-3 ovarian)?
The GI50 was 3540 nM.

And the TGI (SK-OV-3 ovarian)?
Its TGI is over 100000 nM.

What about the GI50 (SNB-19 CNS) of the same compound?
The GI50 was 4520 nM.

What about the TGI (SNB-19 CNS) of the same compound?
The TGI was over 100000 nM.

What about the GI50 (SN12C renal) of the same compound?
The GI50 was 2210 nM.

And the TGI (SN12C renal)?
The TGI was over 100000 nM.

What about the GI50 (M14 melanoma) of the same compound?
Its GI50 is 26 nM.

What about the TGI (M14 melanoma) of the same compound?
The TGI was 2710 nM.

And the GI50 (CAKI-1 renal)?
The GI50 was 1470 nM.

What about the TGI (CAKI-1 renal) of the same compound?
Its TGI is over 100000 nM.

And the GI50 (MCF7 breast)?
The GI50 was 2250 nM.

What about the TGI (MCF7 breast) of the same compound?
The TGI was over 100000 nM.

What about the GI50 (ACHN renal) of the same compound?
Its GI50 is 711 nM.

And the TGI (ACHN renal)?
The TGI was over 100000 nM.

What about the GI50 (SF-539 CNS) of the same compound?
The GI50 was 4660 nM.

What about the TGI (SF-539 CNS) of the same compound?
The TGI was over 100000 nM.

What about the GI50 (SK-MEL-28 melanoma) of the same compound?
Its GI50 is 32.6 nM.

And the TGI (SK-MEL-28 melanoma)?
Its TGI is 3800 nM.

What about the GI50 (HOP-92 NSCLC) of the same compound?
The GI50 was 1180 nM.

And the TGI (HOP-92 NSCLC)?
Its TGI is 5680 nM.

And the GI50 (NCI-H522 lung)?
Its GI50 is 903 nM.

What about the TGI (NCI-H522 lung) of the same compound?
Its TGI is over 28100 nM.

What about the GI50 (KM12 colon) of the same compound?
Its GI50 is 690 nM.

What about the TGI (KM12 colon) of the same compound?
Its TGI is over 100000 nM.

What about the GI50 (HCC-2998 colon) of the same compound?
The GI50 was 3080 nM.

What about the TGI (HCC-2998 colon) of the same compound?
Its TGI is over 100000 nM.

And the GI50 (HT29 colon)?
The GI50 was 30.2 nM.

And the TGI (HT29 colon)?
The TGI was over 37600 nM.

And the GI50 (EKVX NSCLC)?
The GI50 was 2990 nM.

And the TGI (EKVX NSCLC)?
Its TGI is over 100000 nM.

What about the GI50 (SNB-75 CNS) of the same compound?
The GI50 was 4390 nM.

And the TGI (SNB-75 CNS)?
Its TGI is over 100000 nM.

What about the GI50 (MDA-MB-231 breast) of the same compound?
The GI50 was 610 nM.

And the TGI (MDA-MB-231 breast)?
Its TGI is 8280 nM.

What about the GI50 (K-562 leukemia) of the same compound?
Its GI50 is 38.1 nM.

And the GI50 (SK-MEL-5 melanoma)?
Its GI50 is 435 nM.

What about the TGI (SK-MEL-5 melanoma) of the same compound?
Its TGI is 2910 nM.

And the GI50 (OVCAR-8 ovarian)?
The GI50 was 3120 nM.

And the TGI (OVCAR-8 ovarian)?
The TGI was over 100000 nM.

And the GI50 (NCI-H23 lung)?
Its GI50 is 1420 nM.

What about the TGI (NCI-H23 lung) of the same compound?
Its TGI is over 100000 nM.
